Tests used:
Cathepsin S = Cathepsin S (Homo sapiens, UniProt P25774); test: Binding affinity to human Cathepsin S assessed as inhibition constant using Cbz-VVR-AMC as substrate preincubated for 20 mins at room temperature followed by substrate addition and measured after 10 mins by FRET assay
[1] = Binding affinity to N-terminal sumo/his-6 tagged SARS CoV-2 MPro (3264 to 3569 residues) extracted from Escherichia coli BL21 Gold (DE3) cells assessed as inhibition constant using Dabcyl-KTSAVLQSGFRKMEE-dans as substrate incubated for 10 mins by FRET assay; set-up: species or system Severe acute respiratory syndrome coronavirus 2
Procathepsin L [2] = biological target: T1, Procathepsin L (Homo sapiens, UniProt P07711); test: Inhibition of human Cathepsin L assessed as residual activity using Cbz-FR-AMC as substrate at 1 uM preincubated for 20 mins at room temperature followed by substrate addition and measured after 10 mins by FRET assay; details: time 30.0 min
Target sequence in this assay (P07711 114-333 limits assumed): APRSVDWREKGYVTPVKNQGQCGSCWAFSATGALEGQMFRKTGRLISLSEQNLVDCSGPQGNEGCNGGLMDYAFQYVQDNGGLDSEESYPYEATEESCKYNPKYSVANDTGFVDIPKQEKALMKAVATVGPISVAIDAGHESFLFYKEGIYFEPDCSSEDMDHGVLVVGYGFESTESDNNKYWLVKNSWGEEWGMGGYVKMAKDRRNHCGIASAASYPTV

Huh-7 = test: Cytotoxicity against human Huh-7 cells overexpressing human ACE2 incubated for 24 hrs by MTT assay; assay type: functional
Procathepsin L [3] = biological target: T1, Procathepsin L; test: Binding affinity to human Cathepsin L assessed as inhibition constant using Cbz-FR-AMC as substrate preincubated for 20 mins at room temperature followed by substrate addition measured after 10 mins by FRET assay
Target sequence in this assay (P07711 whole entry): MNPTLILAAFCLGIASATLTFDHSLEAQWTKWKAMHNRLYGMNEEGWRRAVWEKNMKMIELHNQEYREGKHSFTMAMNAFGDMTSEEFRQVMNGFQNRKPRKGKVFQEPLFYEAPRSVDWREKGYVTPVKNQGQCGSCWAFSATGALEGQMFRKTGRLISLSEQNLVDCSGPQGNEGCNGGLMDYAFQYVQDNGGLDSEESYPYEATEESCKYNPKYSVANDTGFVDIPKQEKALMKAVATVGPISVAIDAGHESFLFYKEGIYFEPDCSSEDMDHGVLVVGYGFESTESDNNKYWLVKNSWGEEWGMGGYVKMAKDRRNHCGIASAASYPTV

[4] = system: Severe acute respiratory syndrome coronavirus 2; test: Inhibition of N-terminal sumo/his-6 tagged SARS CoV-2 MPro (3264 to 3569 residues) extracted from Escherichia coli BL21 Gold (DE3) cells assessed as residual activity using Dabcyl-KTSAVLQSGFRKMEE-dans as substrate at 1 uM incubated for 10 mins by FRET assay relative to control
Cathepsin B = Cathepsin B (Homo sapiens, UniProt P07858); test: Binding affinity to human Cathepsin B assessed as inhibition constant using Cbz-FR-AMC as substrate preincubated for 20 mins at room temperature followed by substrate addition and measured after 10 mins by FRET assay

Chain of Cathepsin S (P25774 whole entry, the tested form may be a part): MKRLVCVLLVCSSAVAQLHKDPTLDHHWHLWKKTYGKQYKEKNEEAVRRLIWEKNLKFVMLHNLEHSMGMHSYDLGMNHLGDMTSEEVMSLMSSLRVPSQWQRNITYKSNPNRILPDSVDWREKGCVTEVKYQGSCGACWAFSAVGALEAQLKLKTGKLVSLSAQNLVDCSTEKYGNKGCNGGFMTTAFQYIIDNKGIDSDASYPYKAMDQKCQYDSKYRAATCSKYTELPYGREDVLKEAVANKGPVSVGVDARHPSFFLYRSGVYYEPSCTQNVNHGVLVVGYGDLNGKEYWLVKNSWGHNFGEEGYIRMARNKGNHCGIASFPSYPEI

Compound	Ki (Cathepsin S) [nM]	Ki [1] [nM]	Activity (Procathepsin L [2]) [%]	CC50 (Huh-7) [nM]	Ki (Procathepsin L [3]) [nM]	Activity [4] [%]	Ki (Cathepsin B) [nM]
CC(=O)/C=C/[C@H](C[C@@H]1CCNC1=O)NC(=O)[C@H](CC1CC1)NC(=O)c1ccccc1F	95.4	2950	23.2	> 100000	294	57.9	
CC(=O)/C=C/[C@H](C[C@@H]1CCNC1=O)NC(=O)[C@H](CC(C)C)NC(=O)c1ccc(F)cc1	6.23	5580	5.8	> 100000	20	64.9	10900
CC(=O)/C=C/[C@H](C[C@@H]1CCNC1=O)NC(=O)[C@H](CC(C)C)NC(=O)c1ccccc1F			5.3			88.7	
CCC[C@H](NC(=O)c1ccccc1F)C(=O)N[C@H](/C=C/C(C)=O)C[C@@H]1CCNC1=O			12			101	
CC(=O)/C=C/[C@H](C[C@@H]1CCNC1=O)NC(=O)[C@H](CC(C)(C)C)NC(=O)c1ccc(F)cc1	0.7	5540	45.1	> 100000	701	68.8	7700
CC(=O)/C=C/[C@H](C[C@@H]1CCNC1=O)NC(=O)[C@H](CC1CC1)NC(=O)c1ccc(F)cc1			26.8			83.7	
CC(=O)/C=C/[C@H](C[C@@H]1CCNC1=O)NC(=O)[C@H](CC(C)(C)C)NC(=O)c1ccccc1F			33.5			89.4	
CCC[C@H](NC(=O)c1ccc(F)cc1)C(=O)N[C@H](/C=C/C(C)=O)C[C@@H]1CCNC1=O			19.1			96.5	
CC(=O)/C=C/[C@H](C[C@@H]1CCNC1=O)NC(=O)[C@H](CC1CC1)NC(=O)c1cccc(F)c1			9.76			92.7	
CC(=O)/C=C/[C@H](C[C@@H]1CCNC1=O)NC(=O)[C@H](CC(C)C)NC(=O)c1cccc(F)c1			10.9			99.5	
CC(=O)/C=C/[C@H](C[C@@H]1CCNC1=O)NC(=O)[C@H](CC1CCCCC1)NC(=O)c1cccc(F)c1		3660	3.6	22600	4	64.2	
CCC[C@H](NC(=O)c1cccc(F)c1)C(=O)N[C@H](/C=C/C(C)=O)C[C@@H]1CCNC1=O			8.61			101	
CCCC[C@H](NC(=O)c1ccccc1F)C(=O)N[C@H](/C=C/C(C)=O)C[C@@H]1CCNC1=O			8.66			98.7	
CC(=O)/C=C/[C@H](C[C@@H]1CCNC1=O)NC(=O)[C@H](CC(C)(C)C)NC(=O)c1cccc(F)c1			34.7			77	
CCOC(=O)/C=C/[C@H](C[C@@H]1CCNC1=O)NC(=O)[C@H](Cc1ccccc1)NC(=O)[C@@H](Cc1ccc(F)cc1)NC(=O)OC(C)(C)C		1800			145		
CCCC[C@H](NC(=O)c1cccc(F)c1)C(=O)N[C@H](/C=C/C(C)=O)C[C@@H]1CCNC1=O			6.81			86	
CC(=O)/C=C/[C@H](C[C@@H]1CCNC1=O)NC(=O)[C@H](CC1CCCCC1)NC(=O)c1ccccc1F		1610	3.4	12600	12	56.3	
CCCC[C@H](NC(=O)c1ccc(F)cc1)C(=O)N[C@H](/C=C/C(C)=O)C[C@@H]1CCNC1=O		10700	15.2	> 100000	141	58.8	
CC(=O)/C=C/[C@H](C[C@@H]1CCNC1=O)NC(=O)[C@H](CC1CCCCC1)NC(=O)c1ccc(F)cc1		3140	5	46900	17	68.2	

— ChEMBL document CHEMBL6114939, “Identification of Dual Inhibitors Targeting Main Protease (Mpro) and Cathepsin L as Potential Anti-SARS-CoV-2 Agents” (ACS Med Chem Lett, 2024)
